In ChEMBL document CHEMBL3727358, “Inhibitors of inducible form of 6-phosphofructose-2-kinase” (2014):

What follows are compounds tested against T1, 6-phosphofructo-2-kinase/fructose-2,6-bisphosphatase 3 (Homo sapiens, UniProt Q16875) (assay: Inhibition of iPFK2 (unknown origin) assessed as reduction in enzyme-mediated fructose-6-phosphate phosphorylation by measuring NADH absorbance pre-incubated for 10 mins before ATP/substrate addition followed by incubation for 1 hr by UV-Visible spectrometry based iPFK-2/PPI-PFK coupled enzyme assay).
T1 sequence (Q16875 whole entry): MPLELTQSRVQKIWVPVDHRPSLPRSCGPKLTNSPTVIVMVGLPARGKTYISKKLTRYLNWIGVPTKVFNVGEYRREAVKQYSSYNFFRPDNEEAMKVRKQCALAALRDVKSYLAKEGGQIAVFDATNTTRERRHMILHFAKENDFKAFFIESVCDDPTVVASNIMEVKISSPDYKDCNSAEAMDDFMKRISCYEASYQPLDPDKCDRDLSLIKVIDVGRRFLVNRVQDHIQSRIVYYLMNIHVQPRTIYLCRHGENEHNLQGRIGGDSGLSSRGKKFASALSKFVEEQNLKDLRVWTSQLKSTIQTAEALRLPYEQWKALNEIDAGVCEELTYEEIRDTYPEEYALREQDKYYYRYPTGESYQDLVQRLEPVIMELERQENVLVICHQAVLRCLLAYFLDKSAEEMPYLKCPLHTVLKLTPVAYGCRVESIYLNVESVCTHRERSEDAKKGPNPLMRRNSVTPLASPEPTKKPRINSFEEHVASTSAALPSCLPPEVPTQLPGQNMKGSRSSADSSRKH

IC50, > 1000 nM:
Cc1nc(NCC2CCCN(C(=O)C3CCC3)C2)cc(-c2ccc3ncsc3c2)n1 (configuration not stated)
COc1cccc([C@H](C)Nc2cc(-c3ccc(C)c(N)c3)nc(C)n2)c1
Cc1nc(N[C@@H]2CCCc3ccccc32)cc(-c2ccc3nonc3c2)n1
Cc1nc(N[C@@H]2CCCc3ccccc32)cc(-c2ccc3ncccc3c2)n1
COCCNS(=O)(=O)c1cccc(C(C)Nc2cc(-c3ccc4ncsc4c3)nc(C)n2)c1 (configuration not stated)
Cc1nc(NC(C)c2cccc(OCCN(C)C)c2)cc(-c2ccc3occ(C)c3c2)n1 (configuration not stated)
Cc1nc(NCC2CCCN(C(=O)CN(C)C(=O)c3ccccc3)C2)cc(-c2ccc3ncsc3c2)n1 (configuration not stated)
Cc1nc(NC(C)c2cccc(OCC(=O)N3CCC3)c2)cc(-c2ccc3ncsc3c2)n1 (configuration not stated)
CCN(CC)C(=O)COc1cccc(C(C)Nc2cc(-c3ccc4c(c3)N(C)CCO4)nc(C)n2)c1 (configuration not stated)
Cc1nc(NC(C)c2cccc(OCC(=O)N3CCCC3)c2)cc(-c2ccc3ncsc3c2)n1 (configuration not stated)
Cc1nc(NC(C)c2cccc(-c3nn[nH]n3)c2)cc(-c2ccc3ncsc3c2)n1 (configuration not stated)
Cc1nc(NC(C)c2cccc(-c3ccnc(N)n3)c2)cc(-c2ccc3ncsc3c2)n1 (configuration not stated)
Cc1nc(N[C@@H]2CCCc3ccccc32)cc(-c2ccc3nccnc3c2)n1
Cc1nc(NC(C)c2cccc(-c3cnn(C)c3)c2)cc(-c2ccc(F)c(Cl)c2)n1 (configuration not stated)
COc1cccc(Oc2cc(N[C@@H]3CCCc4ccccc43)nc(C)n2)c1
Cc1nc(NC(C)c2cccc(NC(=O)CN(C)C(=O)OC(C)(C)C)c2)cc(-c2ccc3ncsc3c2)n1 (configuration not stated)
Cc1nc(NCC2CCCN(C(=O)C3CCCCC3)C2)cc(-c2ccc3ncsc3c2)n1 (configuration not stated)
Cc1nc(NC(C)c2cc(O)ccc2F)cc(-c2ccc3ncsc3c2)n1 (configuration not stated)
Cc1nc(NC(C)c2cccc(-c3cnn(C)c3)c2)cc(-c2ccc3ccccc3c2)n1 (configuration not stated)
Cc1nc(NCc2cc(OCC(=O)N3CCOCC3)ccc2F)cc(-c2ccc3ncsc3c2)n1
Cc1nc(N[C@H](C)c2cccc(-c3cnn(C)c3)c2)cc(-c2cccc(F)c2)n1
COc1cccc([C@H](C)Nc2cc(-c3ccc4ncccc4c3)nc(C)n2)c1
Cc1nc(NC(C)c2cccc(S(=O)(=O)NCCO)c2)cc(-c2ccc3ncsc3c2)n1 (configuration not stated)
Cc1nc(NC(C)c2cccc(-c3cnn(C)c3)c2)cc(-c2ccccc2C)n1 (configuration not stated)
Cc1nc(NCC2CCCN(C(=O)c3ccc[nH]3)C2)cc(-c2ccc3ncsc3c2)n1 (configuration not stated)
Cc1nc(N[C@H](C)c2ccnc(-c3cnn(C)c3)c2)cc(-c2ccc3occ(C)c3c2)n1
Cc1nc(NC(C)c2cccc(OCC[C@H](O)c3ccccc3)c2)cc(-c2ccc3ncsc3c2)n1 (some centres not stated)
Cc1cc(COc2ccc(F)c(C(C)Nc3cc(-c4ccc5ncsc5c4)nc(C)n3)c2)n(C)n1 (configuration not stated)
Cc1cc(COc2cccc([C@@H](C)Nc3cc(-c4ccc5ncsc5c4)nc(C)n3)c2)n(C)n1
Cc1nc(NC(C)c2cccc(/C(N)=N/O)c2)cc(-c2ccc3ncsc3c2)n1 (configuration not stated)
Cc1nc(NC(C)c2cccc(OCC(=O)NCC(C)O)c2)cc(-c2ccc3ncsc3c2)n1 (configuration not stated)
Cc1nc(NC(C)c2cccc(-c3cnn(C)c3)c2)cc(-c2cccc(N(C)C)c2)n1 (configuration not stated)
Cc1nc(NC(C)c2cccc(OCC(=O)O)c2)cc(-c2ccc3ncsc3c2)n1 (configuration not stated)
Cc1nc(N[C@H](C)c2cccc(-c3cnn(C)c3)c2)cc(-c2ccc3ncsc3c2)n1
COc1ccc(-c2cc(NC(C)c3cccc(-c4cnn(C)c4)c3)nc(C)n2)c(F)c1 (configuration not stated)

IC50, 500 nM:
Cc1nc(NC(C)c2cccc(OCC#N)c2)cc(-c2ccc3ncsc3c2)n1 (configuration not stated)
CCN(C)C(=O)COc1cccc(C(C)Nc2cc(-c3ccc4ncsc4c3)nc(C)n2)c1 (configuration not stated)
Cc1nc(NC(C)c2cccc(NC(=O)c3ccn[nH]3)c2)cc(-c2ccc3ncsc3c2)n1 (configuration not stated)
Cc1nc(N[C@@H]2CCCc3ccccc32)cc(-c2ccc(Cl)c(COC(C)C(=O)O)c2)n1 (some centres not stated)
Cc1nc(NC(C)c2cccc(OCCN(C)C)c2)cc(-c2ccc3ncsc3c2)n1 (configuration not stated)
Cc1nc(NC(C)c2cccc(S(N)(=O)=O)c2)cc(-c2ccc3ncsc3c2)n1 (configuration not stated)
Cc1nc(N[C@@H](C)c2cccc(/C=C/C(=O)NC(C)(C)C)c2)cc(-c2ccc3ncsc3c2)n1
COc1cccc(-c2cc(N[C@@H]3CCCc4ccccc43)nc(C)n2)c1F
COCCNC(=O)COc1cccc(C(C)Nc2cc(-c3ccc4ncsc4c3)nc(C)n2)c1 (configuration not stated)
Cc1nc(N[C@@H](C)c2cccc(-c3cnc(N4CCCCC4)nc3)c2)cc(-c2ccc3ncsc3c2)n1
COc1ccc(-c2cc(NC(C)c3cccc(-c4cnn(C)c4)c3)nc(C)n2)cc1 (configuration not stated)
Cc1nc(N[C@@H]2CCCc3ccccc32)cc(-c2ccc3c(c2)C(=O)C=CC3)n1
Cc1nc(NC(C)c2cccc(-c3cnn(CC(=O)O)c3)c2)cc(-c2ccc3ncsc3c2)n1 (configuration not stated)
Cc1nc(NC(C)c2cccc(OC(C)C(N)=O)c2)cc(-c2ccc3ncsc3c2)n1 (configuration not stated)
Cc1nc(NC(C)c2cccc(-c3cnn(C)c3)c2)cc(-c2cc(F)c(F)c(F)c2)n1 (configuration not stated)
Cc1nc(NC(C)c2cccc(OCC(N)=O)c2)cc(-c2cc3ccccc3n2C)n1 (configuration not stated)
Cc1nc(NC(C)c2cccc(-c3cnn(C)c3)c2)cc(-c2ccc(Cl)cc2Cl)n1 (configuration not stated)
CC(=O)N1CCN(CCOc2cccc(C(C)Nc3cc(-c4ccc5ncsc5c4)nc(C)n3)c2)CC1 (configuration not stated)
Cc1nc(NC(C)c2cccc(OCC(=O)N3CC3C)c2)cc(-c2ccc3ncsc3c2)n1 (configuration not stated)
Cc1nc(N[C@@H]2CCCc3ccccc32)cc(-c2ccc(C)c(O)c2)n1
Cc1nc(NC(C)c2cccc(OCC(=O)N(C)C)c2)cc(-c2ccc3ncsc3c2)n1 (configuration not stated)
Cc1nc(NCc2cc(OCC(=O)N(C)C)ccc2F)cc(-c2ccc3ncsc3c2)n1
Cc1nc(NC(C)c2cccc(-c3cnn(C)c3)c2)cc(-c2ccc(F)c(F)c2)n1 (configuration not stated)
CCN(CC)c1ncc(-c2cccc([C@H](C)Nc3cc(-c4ccc5ncsc5c4)nc(C)n3)c2)cn1
Cc1nc(NC(C)c2cccc(NC(=O)c3ccn(C)n3)c2)cc(-c2ccc3ncsc3c2)n1 (configuration not stated)
Cc1nc(NC(C)c2cccc(OCC(=O)NC3CC3)c2)cc(-c2ccc3ncsc3c2)n1 (configuration not stated)
Cc1nc(NC(C)c2cccc(OCCCN3CCCC3)c2)cc(-c2ccc3ncsc3c2)n1 (configuration not stated)
CCN(CC)C(=O)COc1cccc(C(C)Nc2cc(-c3ccc4ccccc4c3)nc(C)n2)c1 (configuration not stated)
Cc1nc(NC(C)c2cccc(OCC(=O)N3CCCCC3)c2)cc(-c2ccc3ncsc3c2)n1 (configuration not stated)
COc1cc(-c2cc(NC(C)c3cccc(O)c3)nc(C)n2)ccc1C (configuration not stated)
COc1cc(C(C)Nc2cc(-c3ccc4ncsc4c3)nc(C)n2)ccn1 (configuration not stated)

Each compound was assayed against T1, 6-phosphofructo-2-kinase/fructose-2,6-bisphosphatase 3 (assay: Inhibition of iPFK2 (unknown origin) assessed as reduction in enzyme-mediated fructose-6-phosphate phosphorylation by measuring ATP consumption incubated for 3 hrs by luciferase-luciferin-coupled chemiluminescence assay).

IC50, 500 nM:
Cc1nc(NC(C)c2cccc(OCc3cccnc3)c2)cc(-c2ccc3ncsc3c2)n1 (configuration not stated)
Cc1nc(NC(C)c2cccc(OCc3csc(C)n3)c2)cc(-c2ccc3ncsc3c2)n1 (configuration not stated)
Cc1nc(NC(C)c2cccc(-c3ccoc3)c2)cc(-c2ccc3occ(C)c3c2)n1 (configuration not stated)
Cc1nc(NC(C)c2cccc(-c3ccc(F)nc3C)c2)cc(-c2ccc3ncsc3c2)n1 (configuration not stated)
COc1ccc(-c2cc(NC(C)c3cccc(-c4cnn(C)c4)c3)nc(C)n2)cc1 (configuration not stated)
Cc1nc(NC(C)c2cccc(-c3cnn(C)c3)c2)cc(-c2cccc(O)c2)n1 (configuration not stated)
Cc1nc(NC(C)c2cccc(OCCF)c2)cc(-c2ccc3ncsc3c2)n1 (configuration not stated)
Cc1nc(NC(C)c2cccc(-c3cnn(C)c3)c2)cc(-c2ccc(Cl)cc2Cl)n1 (configuration not stated)
Cc1nc(NC(C)c2cccc(S(=O)(=O)NCCO)c2)cc(-c2ccc3ncsc3c2)n1 (configuration not stated)
Cc1nc(N[C@@H]2CCCc3ccccc32)cc(-c2ccc(C)c(O)c2)n1
Cc1nc(NC(C)c2cccc(-c3cnn(C)c3)c2)cc(-c2ccc3c(c2)CCO3)n1 (configuration not stated)
Cc1nc(NC2CC(C)(C)Oc3ccccc32)cc(-c2ccc3ncsc3c2)n1 (configuration not stated)
Cc1nc(N[C@@H]2CCCc3ccccc32)cc(-c2ccc3c(ccn3C)c2)n1
Cc1nc(NC(C)c2cccc(OCC(=O)NCC(C)O)c2)cc(-c2ccc3ncsc3c2)n1 (configuration not stated)

IC50, > 1000 nM:
Cc1nc(NC(C)c2cccc(NC(=O)c3ccn[nH]3)c2)cc(-c2ccc3ncsc3c2)n1 (configuration not stated)
COCCNS(=O)(=O)c1cccc(C(C)Nc2cc(-c3ccc4ncsc4c3)nc(C)n2)c1 (configuration not stated)
Cc1nc(NC(C)c2cccc(OCc3ccccc3)c2)cc(-c2ccc3ncsc3c2)n1 (configuration not stated)
Cc1nc(NC(C)c2cccc(-c3cnn(C)c3)c2)cc(-c2ccc3c(c2)OCCO3)n1 (configuration not stated)
COc1cccc(-c2cc(N[C@@H]3CCCc4ccccc43)nc(C)n2)c1F
Cc1nc(NC(C)c2cccc(-c3ccsc3)c2)cc(-c2ccc3occ(C)c3c2)n1 (configuration not stated)
Cc1nc(NC(C)c2cccc(OC(C)C(N)=O)c2)cc(-c2ccc3ncsc3c2)n1 (configuration not stated)
Cc1nc(NC(C)c2cccc(-c3cnn(C)c3)c2)cc(-c2ccccc2C)n1 (configuration not stated)
Cc1cc(COc2ccc(F)c(C(C)Nc3cc(-c4ccc5ncsc5c4)nc(C)n3)c2)n(C)n1 (configuration not stated)
Cc1nc(NC(C)c2cccc(NC(=O)c3ccn(C)n3)c2)cc(-c2ccc3ncsc3c2)n1 (configuration not stated)
COc1cc(-c2cc(NC(C)c3cccc(O)c3)nc(C)n2)ccc1C (configuration not stated)
CCCOc1cccc(C(C)Nc2cc(-c3ccc4ncsc4c3)nc(C)n2)c1 (configuration not stated)
